Laboratory results: patent US20080287527A1, “Pharmaceuticals for treating or preventing oral diseases” (HAWLEY & HAZEL (BVI) COMPANY LIMITED, priority 2007, published 2008)

How the values were obtained:
[1] = system: Porphyromonas gingivalis (P. g) ATCC 33277; assay: MIC by broth micro-dilution against Porphyromonas gingivalis; type: cell-based; conditions: anaerobic, 37 °C, 18-24 h, no unit in table, dilution series 250-0.12 mg/L (ceiling 250 ppm)
Experimental: (§1) A single colony was picked from the Trypticase Digested Soybean peptone agar blood plate (TSA5B) of ordinarily stored bacteria species and used to inoculate corresponding broth culture medium, which was cultivated in a microaerobic environment (P.g needs anaerobic cultivation) with 95% air, 5% CO2 at 37.0° C.±1.0° C., wherein S.m was cultivated for 18-24 h, and the remaining two species were cultivated for 40-48 h. Then corresponding broth cultivate medium was used to adjust the turbidity of the bacteria suspension to 0.5^# McFarland standard, equivalent to 1.0×10^8 CFU/mL.
(§2) The operating steps were:
(§3) a. Preparation of the stock solution of antibacterial pharmaceutical: 1% stock solution of various antibacterial pharmaceuticals was prepared with 100% pure ethanol as solvent. The prepared stock solution was filtered to eliminate bacteria, and was distributed into small portions to be used.
(§4) b. Range of measured concentration: the present experiment used 250 ppm as the ceiling measured concentration of the anti-bacterial pharmaceutical.
(§5) c. Measuring method: micro-dilution method. […]
(§6) The bacteria to be tested and standard bacteria were prepared as above. […] 0.12 mg/L, and the final inoculation quantity was about […] or 5×10^6 bacteria in each well. […]

GM-CSF = assay: LUMINEX analysis of GM-CSF in KB cell supernatant; type: cell-based, human; conditions: concentration not given
Experimental: (§7) Anti-inflammatory activity was assessed using the KB cell (the epidermis cancer cell in human oral cavity). During the experiment, the KB cell inoculated in the cultivating plate was treated with or without positive control or compound 5-hydroxymorusin. After the treatment, the supernatant of the cultivating medium was collected and stored in −80° C. refrigerators. Inflammation was assessed by measuring several inflammation markers: Prostaglandin E2 (PGE2) in the supernatant was detected by Enzyme-linked immunsorbent assay, and LUMINEX™ multifunctional liquid-phase chip analysis system was used for the detection of granulocyte monocyte colony stimulating factor (GM-CSF), tumor necrosis factor-alpha (TNF-α), and interleukins 1-beta and 6 (IL-1β and IL-6).
(§8) LUMINEX™ multifunctional liquid-phase chip analyses of GM-CSF, TNF-α, IL-1 and IL-6: The 96-well plate was enclosed with enclosing liquid for 30 minutes. Fluorescent microspheres were added into the 96-well plate after dilution. The standard and the samples to be measured were added, and incubated overnight at 4° C. The next day, the supernatant was discarded and 50 μL GM-CSF, TNF-α, IL-1β and IL-6 antibodies were added to each well. After being rinsed for 4 times, the 96-well plate was placed in a shaking table, which was in ambient temperature, to keep the plate away from light for 1 hour. […]

TNF-α = assay: LUMINEX analysis of TNF-α in KB cell supernatant; type: cell-based, human; conditions: concentration not given
Experimental: as §7, §8

IL-1β = assay: LUMINEX analysis of IL-1β in KB cell supernatant; type: cell-based, human; conditions: concentration not given
Experimental: as §7, §8

IL-6 = assay: LUMINEX analysis of IL-6 in KB cell supernatant; type: cell-based, human; conditions: concentration not given
Experimental: as §7, §8

[2] = system: Streptococcus mutans (S. m) ATCC 25175; assay: MIC by broth micro-dilution against Streptococcus mutans; type: cell-based; conditions: 37 °C, 18-24 h, no unit in table, dilution series 250-0.12 mg/L (ceiling 250 ppm)
Experimental: as §1, §2, §3, §4, §5, §6

[3] = system: Actinomyces viscosus (A. v) ATCC 27044; assay: MIC by broth micro-dilution against Actinomyces viscosus; type: cell-based; conditions: 37 °C, 18-24 h, no unit in table, dilution series 250-0.12 mg/L (ceiling 250 ppm)
Experimental: as §1, with “wherein S.m was cultivated for 18-24 h, and the remaining two species were cultivated for 40-48 h.” left out
as §2, §3, §4, §5, §6

Oc1cc(Cl)ccc1Oc1ccc(Cl)cc1Cl [Triclosan]
minimum inhibitive concentration (MIC), P. g ATCC 33277 [1]: 7.8
anti-inflammatory effect, GM-CSF (the larger the value, the stronger the anti-inflammatory ability) (GM-CSF): 5%
anti-inflammatory effect, TNF-α (the larger the value, the stronger the anti-inflammatory ability) (TNF-α): 81%
anti-inflammatory effect, IL-1β (the larger the value, the stronger the anti-inflammatory ability) (IL-1β): 7%
anti-inflammatory effect, IL-6 (the larger the value, the stronger the anti-inflammatory ability) (IL-6): 31%
minimum inhibitive concentration (MIC), S. m ATCC 25175 [2]: 3.9
minimum inhibitive concentration (MIC), A. v ATCC 27044 [3]: 3.9
